Results from patent US20230242473A1, “THYROMIMETICS” (Autobahn Therapeutics, Inc., priority 2020, published 2023).

Target: T1, recombinant human FAAH (rhFAAH) (Homo sapiens, UniProt O00519)
T1 construct: purchased Cayman Chemical (Ann Arbor, Mich., USA)
T1 sequence (O00519 1-579): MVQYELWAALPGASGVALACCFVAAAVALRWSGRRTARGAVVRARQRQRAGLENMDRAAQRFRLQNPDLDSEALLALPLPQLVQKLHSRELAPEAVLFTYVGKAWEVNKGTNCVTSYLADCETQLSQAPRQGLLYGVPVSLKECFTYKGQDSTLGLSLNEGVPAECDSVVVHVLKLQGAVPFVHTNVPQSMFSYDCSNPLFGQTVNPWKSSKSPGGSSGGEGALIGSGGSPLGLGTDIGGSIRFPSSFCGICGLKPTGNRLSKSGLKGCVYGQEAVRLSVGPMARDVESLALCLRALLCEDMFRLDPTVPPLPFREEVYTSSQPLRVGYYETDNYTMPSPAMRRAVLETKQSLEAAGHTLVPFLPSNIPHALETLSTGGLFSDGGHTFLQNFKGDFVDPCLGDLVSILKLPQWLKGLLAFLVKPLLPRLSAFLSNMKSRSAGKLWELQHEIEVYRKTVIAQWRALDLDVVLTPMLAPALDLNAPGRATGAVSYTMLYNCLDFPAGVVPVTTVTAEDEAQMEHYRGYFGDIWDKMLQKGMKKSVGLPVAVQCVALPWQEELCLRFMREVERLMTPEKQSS
Assay: FAAH substrate evaluation (formation of acid metabolite, LC-MS/MS)
Assay type: in vitro ADME
Conditions: 0.5 ng/μL rhFAAH, 1 μM test compound, pH 8.0, room temperature, 0-60 minutes
Method: Purified recombinant human FAAH (rhFAAH) was purchased from Cayman Chemical (Ann Arbor, Mich., USA). The total volume for each incubation was 400 μL containing a final 0.5 ng/μL rhFAAH, 1 μM test compound, 1.25% ethanol or 1 μM PF-3845 (FAAH inhibitor), and 0.1% bovine serum albumin in Tris-EDTA buffer at pH 8.0). The positive control was LL-341001. The incubation was conducted at the room temperature. At 0, 5, 15, 30 and 60 minutes, an aliquot of 30 μL reaction mixtures was removed and mixed with 300 μL acetonitrile containing 5 ng/mL terfenadine and 10 ng/mL tolbutamide as internal standards to quench the reaction. The resulting mixture was centrifuged at 4000 rpm, 4° C. for 15 minutes, and 100 μL supernatant was ready for LC-MS/MS analysis to measure the formation of acid metabolite.
Acquity Ultra Performance LC system from Waters was used for sample analysis. The chromatography was performed on a reverse phase Kinetex 2.6 μm C18 column, 2.1×30 mm, 100 Å. The mobile phase A comprised of 0.10% formic acid in water and mobile phase B comprised of 0.1% formic acid in acetonitrile with a 2-min run time at the flow rate of 0.8 mL/min for the acid metabolite from positive control or a 1.5 min run time at the flow rate of 0.9 mL/min for the acid metabolite of test compounds. The mass spectrometer (API-5500 and API Q Trap 4000 Applied Biosystems/MDS SCIEX Instruments, Framingham, Mass., USA) was operated under ESI positive or negative ion MRM mode.
The formation of acid metabolite was monitored and quantified using one calibration point of 1 μM. The observed rate constant (ke) for the acid metabolite formation was calculated by plotting the metabolite concentration versus time of incubation with the slope being ke and is shown in Table 4.

| SMILES | ke, observed rate constant for the acid metabolite formation |
| --- | --- |
| CNC(=O)COc1ccc(Cc2ccc(O)c(C(C)C)c2F)c(C(C)C)c1 [Compound 43, 2-(4-(2-fluoro-4-hydroxy-3-isopropylbenzyl)-3-isopropylphenoxy)-N-methylacetamide] | A (A = ke is less than 2.0 and more than or equal to 0.05) |
| CNC(=O)COc1cc(C(C)C)c(Cc2ccc(O)c(C(C)C)c2)cc1F [Compound 47, 2-(2-fluoro-4-(4-hydroxy-3-isopropylbenzyl)-5-isopropylphenoxy)-N-methylacetamide] | A (A = ke is less than 2.0 and more than or equal to 0.05) |
| CC(C)c1cc(Cc2cc(F)c(OCC(=O)N(C)C)cc2C(C)C)ccc1O [Compound 48, 2-(2-fluoro-4-(4-hydroxy-3-isopropylbenzyl)-5-isopropylphenoxy)-N,N-dimethylacetamide] | A (A = ke is less than 2.0 and more than or equal to 0.05) |
